Measured values published in US11026419B2, “Silver- and copper-chelating ionic liquids, polymers, and gels, and uses thereof” (Massachusetts Institute of Technology, priority 2016, dated 2021).

Experiments:
[1] = system: Pseudomonas aeruginosa (PA14); experiment: Antimicrobial sensitivity, colony forming units (CFU) of PA14; assay type: cell-based; conditions: PA14, compared with control samples (FIG. 2)
Excerpt: Antimicrobial sensitivity experiments used Pseudomonas aeruginosa (PA14, FIG. 2) a gram-negative monoflagellated bacterium. This is a model bacterium for such studies as it is […] and is an opportunistic human pathogen, colonizing immunocompromised patients, such as those with cystic fibrosis, cancer, or AIDS [15].

PA14 = experiment: Turbidity of PA14 solutions as indication of bacterial growth; assay type: cell-based, Pseudomonas aeruginosa; conditions: PA14 solution with 10 uL IL (FIG. 3)
HEK cells = experiment: Cell viability assay, LDH release; assay type: cell-based, human; conditions: 24 hours treatment, at the higher concentrations tested
Description: The toxicity of the compounds towards human cells was tested using HEK cell lines (FIG. 5), which were cultured in DMEM medium and 10% Fetal Bovine Serum at 37° C. in 5% CO2. 5×10^4 cells were seeded into 96-well plates 24 hours before treatment. Incremental concentrations of ionic liquids (diluted 2×) were added into the wells for another 24 hours. The release of the cytosolic enzyme lactate dehydrogenase (LDH) was then measured, following the manual of Pierce LDH Cytotoxicity Assay Kit (Thermofisher, Mass., USA). Untreated cells (live cells) and cells treated with lysis buffer for 2 hours (dead cells) were used as the reference for normalization. All experiments were performed in triplicate. […] Experiments were repeated using an MTX assay with the trend in the results matching those of the LDH assay.

Row | Substance | drop in the colony-forming unit (CFU) [1] | turbidity / bacteria growth (PA14) | reduced cell viability (HEK cells)
1 | N-hexylethylenediaminium bis(trifluoroethanesulfonyl)amide [[HHex][Tf2N]] | ~3 orders of magnitude | no turbidity | ~50%
2 | N-butyl(ethylenediaminium) bis(trifluoroethanesulfonyl)amide [[HButylen][Tf2N]] |  |  | ~50%
